Data taken from US20240246918A1, “COMPOUNDS AND COMPOSITIONS AS EIF4E INHIBITORS AND THE USES THEREOF” (Ribometrix, Inc., priority 2022, published 2024).

Experiments:
human eIF4E protein = target: T1, human eIF4E protein (Homo sapiens, UniProt P06730); experiment: Biochemical competitive binding assay (TR-FRET competition, EDA-m7GDP-ATTO-647N probe); conditions: read-out: hEIF4E TR-FRET IC50
T1 construct: purchased Novus NBP-45314
Outline: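 IC50 values come from 4-parameter fits of the normalized 665/620 nm TR-FRET ratio. Compound was first incubated 15 min with 4 nM recombinant His-eIF4E bound to 2.5 nM Eu-anti-His antibody, then 15 min with 5 nM m7GDP-ATTO-647N tracer, in pH 7.5 HEPES buffer with 100 mM KCl, Tween-20 and BSA.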

[1] = tested on: COLO 205 colorectal tumor cells; experiment: Tumor cell viability inhibition assay (CellTiter-Glo 2.0, 72 hours); type: cell-based; conditions: Homo sapiens, COLO 205, 72 h, COLO 205 cell viability
Outline: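 IC50 derived by 4-parameter fitting after normalizing luminescence to DMSO and max-inhibition wells. Compounds tested as 11 concentrations in 4-fold steps on COLO 205 cells seeded at 1500 per well in RPMI-1640/10% FBS; ATP content measured with CellTiter-Glo 2.0 after 72 h.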

[2] = tested on: cyclin D1 protein levels in COLO 205 cells; experiment: Cyclin D1 cellular inhibition assay (HTRF, 6 hours); type: cell-based; conditions: Homo sapiens, COLO 205, 6 h, 6 hours of compound treatment, Cyclin D1 protein levels by HTRF, read-out: COLO 205 6 h Cyclin D1 TR-FRET IC50
Description: The effect of compound treatment on cyclin D1 protein levels in COLO 205 cells was assessed, as follows. Test compound plates were prepared with a Tecan D300e Digital Dispenser as 11-point concentration-response curves with a final DMSO concentration of 1%. COLO 205 (ATCC, CCL-222) colorectal tumor cells were seeded to assay-ready plates in RPMI-1640 medium supplemented with 10% FBS at 20,000 cells in a volume of 6 microliters per well. After 6 hours of compound treatment, cells were lysed and Cyclin D1 protein levels were assessed by an HTRF assay (PerkinElmer #64CYCD1ITPEG), according to the manufacturer's protocol. Time-resolved fluorescence was measured using a Clariostar Plus microplate reader (BMG Labtech) or equivalent. After normalization to the average of DMSO control and maximum inhibition control wells, concentration-response data were plotted and standard 4-parameter curve fitting (GraphPad Prism v9.4.1) was utilized to determine IC50 values.

[3] = tested on: cap-dependent translation in Flp-In-293 reporter cells; experiment: Cellular cap-dependent translation inhibition assay (dual luciferase assay, DLA; Fluc/Rluc ratio, 24 hours); type: cell-based; conditions: Homo sapiens, Flp-In-293, 24 h, dual luciferase assay, Flp-In-293 reporter cells, 24 hours, Fluc/Rluc ratio; read-out: DLA 205 IC50

T1 sequence (P06730 whole entry): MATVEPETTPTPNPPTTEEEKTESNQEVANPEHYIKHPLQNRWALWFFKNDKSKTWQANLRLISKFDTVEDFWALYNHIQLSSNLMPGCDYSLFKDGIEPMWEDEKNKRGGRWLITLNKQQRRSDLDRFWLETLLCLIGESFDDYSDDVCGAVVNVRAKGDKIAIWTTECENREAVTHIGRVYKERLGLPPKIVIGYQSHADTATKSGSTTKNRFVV

| Structure (SMILES) | IC50 (human eIF4E protein) [µM] | IC50 [1] [µM] | IC50 [2] [µM] | IC50 [3] [µM] |
| --- | --- | --- | --- | --- |
| Cc1cc(-c2cc(Cl)ccc2OCCn2c(C)nc3c(c2=O)C[C@H](N(C)C[C@H]2C[C@](C)(O)C2)CC3)c2scc(C(=O)O)c2n1 (relative stereo) [Compound 210] | < 0.1 | > 20 | > 20 |  |
| Cc1cc(-c2cc(Cl)ccc2OCCn2c(C)nc3c(c2=O)C[C@H](N2CCC[C@@]4(C2)CC4(F)F)CC3)c2scc(C(=O)O)c2n1 (single isomer, unassigned) [Compound 139] | < 0.1 | < 5 | < 5 |  |
| Cc1cc(-c2cc(Cl)ccc2OCCn2c(C)nc3c(c2=O)C[C@@H](N2CCC[C@]4(C2)CC4(F)F)CC3)c2scc(C(=O)O)c2n1 (single isomer, unassigned) [Compound 140] | < 0.1 | < 5 | < 5 |  |
| Cc1cc(-c2cc(Cl)ccc2OCCn2c(C)nc3c(c2=O)C[C@@H](N2CCC[C@@]4(C2)CC4(F)F)CC3)c2scc(C(=O)O)c2n1 (single isomer, unassigned) [Compound 141] | < 0.1 | < 5 | < 5 |  |
| Cc1cc(-c2cc(Cl)ccc2OCCn2c(C)nc3c(c2=O)C[C@H](N2C[C@@H]4CC(F)(F)[C@@H]4C2)CC3)c2scc(C(=O)O)c2n1 (single isomer, unassigned) [Compound 146] | < 0.1 | < 5 | < 5 |  |
| Cc1cc(-c2cc(Cl)ccc2OCCn2c(C)nc3c(c2=O)C[C@H](N2C[C@H]4CC(F)(F)[C@H]4C2)CC3)c2scc(C(=O)O)c2n1 (single isomer, unassigned) [Compound 147] | < 0.1 | < 5 | < 5 |  |
| Cc1cc(-c2cc(Cl)ccc2OCCn2c(C)nc3c(c2=O)C[C@@H](N2C[C@H]4CC(F)(F)[C@H]4C2)CC3)c2scc(C(=O)O)c2n1 (single isomer, unassigned) [Compound 148] | < 0.1 | < 5 | < 5 |  |
| Cc1cc(-c2cc(Cl)ccc2OCCn2c(C)nc3c(c2=O)C[C@@H](N2C[C@@H]4CC(F)(F)[C@@H]4C2)CC3)c2scc(C(=O)O)c2n1 (single isomer, unassigned) [Compound 149] | < 0.1 | < 5 | < 5 |  |
| Cc1cc(-c2cc(Cl)ccc2OCCn2c(C)nc3c(c2=O)C[C@H](N2C[C@H]4CCC(F)(F)[C@H]4C2)CC3)c2scc(C(=O)O)c2n1 (single isomer, unassigned) [Compound 166] | < 0.1 | < 5 | < 5 |  |
| Cc1cc(-c2cc(Cl)ccc2OCCn2c(C)nc3c(c2=O)C[C@H](N2C[C@@H]4CCC(F)(F)[C@@H]4C2)CC3)c2scc(C(=O)O)c2n1 (single isomer, unassigned) [Compound 167] | < 0.1 | < 5 | < 5 |  |
| Cc1cc(-c2cc(Cl)ccc2OCCn2c(C)nc3c(c2=O)C[C@@H](N2C[C@H]4CCC(F)(F)[C@H]4C2)CC3)c2scc(C(=O)O)c2n1 (single isomer, unassigned) [Compound 168] | < 0.1 | < 5 | < 5 |  |
| Cc1cc(-c2cc(Cl)ccc2OCCn2c(C)nc3c(c2=O)C[C@@H](N2C[C@@H]4CCC(F)(F)[C@@H]4C2)CC3)c2scc(C(=O)O)c2n1 (single isomer, unassigned) [Compound 169] | < 0.1 | < 5 | < 5 |  |
| Cc1cc(-c2cc(Cl)ccc2OCCn2c(C)nc3c(c2=O)C[C@H](N(C)[C@H]2CC[C@@](C)(O)C2)CC3)c2scc(C(=O)O)c2n1 (single isomer, unassigned) [Compound 183] | < 0.1 | > 20 | > 20 |  |
| Cc1cc(-c2cc(Cl)ccc2OCCn2c(C)nc3c(c2=O)C[C@@H](N(C)[C@H]2CC[C@](C)(O)CC2)CC3)c2scc(C(=O)NS(C)(=O)=O)c2n1 (single isomer, unassigned) [Compound 206] | < 0.1 | > 20 | > 20 |  |
| Cc1cc(-c2cc(Cl)ccc2OCCn2c(C)nc3c(c2=O)C[C@H](N(C)[C@H]2CC[C@](C)(O)CC2)CC3)c2scc(C(=O)NS(C)(=O)=O)c2n1 (single isomer, unassigned) [Compound 207] | < 0.1 | > 20 | > 20 |  |
| Cc1cc(-c2cc(Cl)ccc2OCCn2c(C)nc3c(c2=O)C[C@H](N(C)C[C@H]2C[C@H](C(F)(F)F)C2)CC3)c2scc(C(=O)O)c2n1 (single isomer, unassigned) [Compound 213] | < 0.1 | < 5 | < 5 |  |
| Cc1cc(-c2cc(Cl)ccc2OCCn2c(C)nc3c(c2=O)C[C@H](N(C)[C@H]2CC[C@@](C)(O)CC2)CC3)c2scc(C(=O)NS(C)(=O)=O)c2n1 (single isomer, unassigned) [Compound 214] | < 0.1 | > 20 | > 20 |  |

| Structure (SMILES) | IC50 (human eIF4E protein) [µM] | IC50 [1] [µM] | IC50 [2] [µM] | IC50 [3] [µM] |
| --- | --- | --- | --- | --- |
| Cc1cc(-c2cc(Cl)ccc2OCCn2c(C)nc3c(c2=O)CC(N(C)C2CC2)CC3)c2c(n1)c(C(=O)O)cn2C (stereo not drawn) [Compound 277] | 0.5 to 5 | > 20 |  | > 5 |
| Cc1cc(-c2cc(Cl)ccc2OCCn2c(C)nc3c(c2=O)CC(N2CCN(CC(F)(F)F)CC2)CC3)c2scc(C(=O)O)c2n1 (stereo not drawn) [Compound 278] | < 0.1 | < 5 |  | < 1 |
| Cc1cc(-c2cc(Cl)ccc2OCCn2c(C)nc3c(c2=O)CC(N2CC(F)(F)C4(CC4)C2)CC3)c2scc(C(=O)O)c2n1 (stereo not drawn) [Compound 279] | < 0.1 | < 5 |  | < 1 |
| Cc1cc(-c2cc(Cl)ccc2OCCn2c(C)nc3c(c2=O)CC(N(C)C24CC(C)(C2)C4(F)F)CC3)c2scc(C(=O)NS(C)(=O)=O)c2n1 (stereo not drawn) [Compound 288] | < 0.1 | 5 to 20 |  | 1 to 5 |
| Cc1nc2c(c(=O)n1CC#Cc1ccc(Cl)cc1-c1ccnc3c(C(=O)O)csc13)CC(N(C)C1CC1)CC2 (stereo not drawn) [Compound 290] | < 0.1 | < 5 |  | < 1 |
| Cc1cc(-c2cc(Cl)ccc2OCCn2c(C)nc3c(c2=O)CC(N(C2CCC2)C2CC2)CC3)c2scc(C(=O)NS(C)(=O)=O)c2n1 (stereo not drawn) [Compound 317] | < 0.1 | < 5 |  | < 1 |
| Cc1cc(-c2cc(Cl)ccc2OCCn2c(C)nc3c(c2=O)CC(N(C)C24CC(C)(C2)C4(F)F)CC3)c2scc(C(=O)O)c2n1 (stereo not drawn) [Compound 318] | < 0.1 | 5 to 20 |  | 1 to 5 |
| Cc1nc2c(c(=O)n1CC#Cc1ccc(Cl)cc1-c1ccnc3c(C(=O)NS(C)(=O)=O)csc13)CC(N1CC(F)C1)CC2 (stereo not drawn) [Compound 325] | < 0.1 | < 5 |  | < 1 |
| COC(=O)c1csc2c(-c3cc(Cl)ccc3OCCn3c(C)nc4c(c3=O)CC(N(C3CC3)C3CC3)CC4)cc(C)nc12 (stereo not drawn) [Compound 339] | 0.5 to 5 | 5 to 20 |  | > 5 |
| Cc1nc2c(c(=O)n1CC#Cc1ccc(Cl)cc1-c1ccnc3c(C(=O)O)csc13)CC(N(C)C)CC2 (stereo not drawn) [Compound 350] | 0.5 to 5 | > 20 |  | > 5 |
| Cc1nc2c(c(=O)n1CC#Cc1ccc(Cl)cc1-c1ccnc3c(C(=O)O)csc13)CC(N(C)Cc1ccncc1)CC2 (stereo not drawn) [Compound 351] | < 0.1 | < 5 |  | < 1 |
| Cc1cc(-c2cc(Cl)ccc2OCCn2c(C)nc3c(c2=O)CC(N(C2CC2)C2CC2)CC3)c2scc(C(=O)O)c2n1 (stereo not drawn) [Compound 352] | < 0.1 | < 5 |  | < 1 |
| COC(=O)c1csc2c(-c3cc(Cl)ccc3OCCn3c(C)nc4c(c3=O)CC(N(CC(F)(F)F)C3CC3)CC4)cc(C)nc12 (stereo not drawn) [Compound 353] | 0.5 to 5 | > 20 |  | > 5 |
| Cc1nc2c(c(=O)n1CC#Cc1ccc(Cl)cc1-c1ccnc3c(C(=O)O)csc13)CC(N1CC(F)C1)CC2 (stereo not drawn) [Compound 355] | < 0.1 | 5 to 20 |  | < 1 |
| Cc1cc(-c2cc(Cl)ccc2OCCn2c(C)nc3c(c2=O)CC(N2CC(F)C2)CC3)c2scc(C(=O)O)c2n1 (stereo not drawn) [Compound 356] | < 0.1 | < 5 |  | < 1 |
| Cc1nc2c(c(=O)n1CC#Cc1ccc(Cl)cc1-c1ccnc3c(C(=O)O)csc13)CC(N1CCCCC1)CC2 (stereo not drawn) [Compound 357] | < 0.1 | < 5 |  | < 1 |
| COC(=O)c1csc2c(-c3cc(Cl)ccc3OCCn3c(C)nc4c(c3=O)CC(N(C)C3CC3)CC4)cc(C)nc12 (stereo not drawn) [Compound 358] | 0.5 to 5 | 5 to 20 |  | 1 to 5 |
